Results taken from US20080090834A1, “SELECTIVE AZOLE PDE10A INHIBITOR COMPOUNDS” (Pfizer Inc, priority 2006, published 2008).
Structures can show the parent of a compound that is named as a salt.

Biological target: T1, cloned rat PDE10A full-length enzyme (Rattus norvegicus, UniProt Q9QYJ6)
T1 construct: cloned rat PDE10A full-length enzyme grown in transfected Sf9 insect cells; made in house; host or cells: Sf9 insect cells
T1 sequence (Q9QYJ6 1-794): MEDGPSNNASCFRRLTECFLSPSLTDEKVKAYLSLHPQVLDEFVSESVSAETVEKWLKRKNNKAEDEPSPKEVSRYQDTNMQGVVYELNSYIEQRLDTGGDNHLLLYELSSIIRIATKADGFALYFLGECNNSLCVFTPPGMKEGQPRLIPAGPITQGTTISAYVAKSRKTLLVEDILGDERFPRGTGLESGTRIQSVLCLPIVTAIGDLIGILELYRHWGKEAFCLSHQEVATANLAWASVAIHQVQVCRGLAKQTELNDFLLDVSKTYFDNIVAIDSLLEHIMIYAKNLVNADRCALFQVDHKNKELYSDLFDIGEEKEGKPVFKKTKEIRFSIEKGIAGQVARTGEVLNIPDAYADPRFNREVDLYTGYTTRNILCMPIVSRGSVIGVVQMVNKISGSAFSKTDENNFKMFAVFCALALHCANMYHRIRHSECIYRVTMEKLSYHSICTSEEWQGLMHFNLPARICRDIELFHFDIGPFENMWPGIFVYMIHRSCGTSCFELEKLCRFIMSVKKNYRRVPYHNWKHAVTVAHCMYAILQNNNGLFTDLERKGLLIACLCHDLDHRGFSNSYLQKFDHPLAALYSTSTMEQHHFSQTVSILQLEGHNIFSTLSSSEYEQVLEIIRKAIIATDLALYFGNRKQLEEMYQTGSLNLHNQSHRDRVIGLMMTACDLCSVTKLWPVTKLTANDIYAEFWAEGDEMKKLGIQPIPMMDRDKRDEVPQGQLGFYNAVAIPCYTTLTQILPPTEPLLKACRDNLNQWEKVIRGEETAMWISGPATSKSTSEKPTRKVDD
Test: PDE10 enzyme inhibition, [3H]cAMP scintillation proximity assay
Type: biochemical
Settings: rat PDE10A from Sf9 cells, 20 nM [3H]cAMP, SPA beads, 20 minute incubation at room temperature
Description: Compounds of the present invention were evaluated for ability to inhibit PDE10 enzyme with the following Assay procedure
The enzyme used in the procedure was cloned rat PDE10A full-length enzyme grown in transfected Sf9 insect cells. Cloned enzyme was extracted from homogenized cell pellets and stored frozen in homogenizing buffer until use. Compounds were initially dissolved in 100% DMSO and diluted out in 20 percent DMSO/water solution. Final concentration of DMSO in the assay was 2 percent as compounds were tested in triplicate in 96 well plates. Compound solution was placed in well, then tritiated cyclic AMP (New England Nuclear NET275) in assay buffer was added at 20 nM concentration. Then PDE10 enzyme in assay buffer of 50 mM Tris, 8.3 mM MgCl2, pH 7.5 at room temperature was added for a final assay volume of 100 ul. Concentration of enzyme was added such that less than 10 percent of [3H]cAMP at 20 nM was converted to detectable end product, [3H]AMP bound to SPA (Scintillation Proximity Assay) beads. Phosphodiesterase scintillation proximity yttrium silicate beads from Amersham Biosciences (RPNQ0150) were added (50 ul at 20 mg/ml) after a 20 minute incubation at room temperature. Zinc sulphate as a component of the beads stops the phosphodiesterase reaction.
Non-specific binding to SPA beads was determined by addition of 1 uM papaverine. Total conversion by enzyme without inhibitor of [3H]cAMP to [3H]AMP, as detected by scintillation of [3H]AMP bound to yttrium silicate beads, was determined in the presence of vehicle-only.

`COc1cc(-c2ccc(-c3nc(-c4ccccn4)cn3-c3cccnc3)cc2)c2ncccc2c1` [Example 80, 6-methoxy-8-(4-(4-(pyridin-2-yl)-1-(pyridin-3-yl)-1H-imidazol-2-yl)phenyl)quinoline] gave an IC50 of 0.794 nM.

With `Cc1ccc(-n2cc(-c3ccccn3)nc2-c2ccc(-n3ccc4cncnc43)cc2)cn1` [Example 74, 7-(4-(1-(6-methylpyridin-3-yl)-4-(pyridin-2-yl)-1H-imidazol-2-yl)phenyl)-7H-pyrrolo[2,3-d]pyrimidine] the IC50 was 2.27 nM.

`CNCCc1ccc(-n2cc(-c3nccs3)nc2-c2ccc(-n3ccc4cccnc43)cc2)cc1` [Example 31] was tested, and the IC50 was 6.63 nM.

Compound `Cc1ccc(-n2cc(-c3cscn3)nc2-c2ccc(-n3c(C(C)C)nc4cccnc43)cc2)cn1` [Example 98, 2-isopropyl-3-(4-(1-(6-methylpyridin-3-yl)-4-(thiazol-4-yl)-1H-imidazol-2-yl)phenyl)-3H-imidazo[4,5-b]pyridine] has an IC50 of 1.13 nM.

Compound `c1ccc(-c2cn(-c3cncnc3)c(-c3ccc(-n4ccc5cccnc54)cc3)n2)nc1` [Example 4] has an IC50 of 13.6 nM.

For `Cc1ccc(-n2cc(-c3ccccn3)nc2-c2ccc(-n3ccc4ncccc43)cc2)cn1` [Example 52, 1-(4-(1-(6-methylpyridin-3-yl)-4-(pyridin-2-yl)-1H-imidazol-2-yl)phenyl)-1H-pyrrolo[3,2-b]pyridine], the IC50 was 9.32 nM.

With `c1ccc(-c2cn(-c3cccnc3)c(-c3ccc(-n4cnc5ccccc54)cc3)n2)nc1` [Example 45, 1-(4-(4-(pyridin-2-yl)-1-(pyridin-3-yl)-1H-imidazol-2-yl)phenyl)-1H-benzo[d]imidazole] the IC50 was 97.8 nM.

`Cc1ncccc1-n1cc(-c2nccs2)nc1-c1ccc(-n2ccc3cccnc32)cc1` [Example 28, 1-(4-(1-(2-methylpyridin-3-yl)-4-(thiazol-2-yl)-1H-imidazol-2-yl)phenyl]-1H-pyrrolo[2,3-b]pyridine] was tested, and the IC50 was 44.1 nM.

Compound `Fc1cccc2ccn(-c3ccc(-c4nc(-c5ccccn5)cn4-c4cccnc4)cc3)c12` [Example 37] has an IC50 of 30.8 nM.

In the case of `c1ccc(-c2cn(-c3cccnc3)c(-c3ccc(-n4c5c(c6cccnc64)CSCC5)cc3)n2)nc1` [Example 17, 9-[4-(4-pyridin-2-yl-1-pyridin-3-yl-1H-imidazol-2-yl)phenyl]-5,7,8,9-tetrahydrothiopyrano[3′,4′,4,5]pyrrolo[2,3-b]pyridine], the IC50 is reported as 0.912 nM.

`Cc1ccc(-n2cc(-c3ncc(C)s3)nc2-c2ccc(-n3ccc4cccnc43)cc2)cn1` [Example 61, 1-(4-(1-(6-methylpyridin-3-yl)-4(5-methylthiazol-2-yl)-1H-imidazol-2-yl)phenyl)-1H-pyrrolo[2,3-b]pyridine] showed an IC50 of 54.8 nM.

In the case of `COc1nc2cccnc2n1-c1ccc(-c2nc(-c3cscn3)cn2-c2ccc(C)nc2)cc1` [Example 96, 2-methoxy-3-(4-(1-(6-methylpyridin-3-yl)-4-(thiazol-4-yl)-1H-imidazol-2-yl)phenyl)-3H-imidazo[4,5-b]pyridine], the IC50 is reported as 0.695 nM.

`Cc1ccc(-n2cc(-c3ccc(F)s3)nc2-c2ccc(-n3ccc4cccnc43)cc2)cn1` [Example 64, 1-(4-(4-(5-fluorothiophen-2-yl)-1-(6-methylpyridin-3-yl)-1H-imidazol-2-yl)phenyl)-1H-pyrrolo[2,3-b]pyridine] was tested, and the IC50 was 6.59 nM.

With `Cc1ccc(-n2cc(-c3ccccn3)nc2-c2ccc(-n3ccc4ccncc43)cc2)cn1` [Example 53] the IC50 was 5.69 nM.

For `c1ccc(-n2nc(-c3ccc(-n4ccc5cccnc54)cc3)c(-c3cccnc3)n2)nc1` [Example 119, 1-(4-(2-(pyridin-2-yl)-5-(pyridin-3-yl)-2H-1,2,3-triazol-4-yl)phenyl)-1H-pyrrolo[2,3-b]pyridine], the IC50 was 134 nM.

In the case of `COc1nc2cccnc2n1-c1ccc(-c2nc(-c3cccs3)cn2-c2ccc(C)nc2)cc1` [Example 93, 2-methoxy-3-(4-(1-(6-methylpyridin-3-yl)-4-(thiophen-2-yl)-1H-imidazol-2-yl)phenyl)-3H-imidazo[4,5-b]pyridine], the IC50 is reported as under 0.424 nM.

Work on `COc1ccc(-c2[nH]c(-c3cccs3)nc2-c2ccc(-n3cnc(-c4ccccc4)c3)cc2)cc1` [Example 108] yielded an IC50 of 602 nM.

With `Cc1ccc(-n2cc(-c3ccccn3)nc2-c2ccc(-n3cnc4cccnc43)cc2)cn1` (single isomer, unassigned) [Example 49, 3-(4-(1-(6-methylpyridin-3-yl)-4-(pyridin-2-yl)-1H-imidazol-2-yl)phenyl)-3H-imidazo[4,5-b]pyridine] the IC50 was 5.5 nM.

For `Fc1cc(-n2ccc3cccnc32)ccc1-c1nc(-c2ccccn2)cn1-c1cccnc1` [Example 11, 1-(3-fluoro-4-(4-(pyridin-2-yl)-1-(pyridin-3-yl)-1H-imidazol-2-yl)phenyl)-1H-pyrrolo[2,3-b]pyridine], the IC50 was 4.14 nM.

Compound `Cc1ccc(-n2cc(-c3nccs3)nc2-c2ccc(-n3c(C(F)(F)F)nc4cccnc43)cc2)cn1` [Example 87] has an IC50 of under 1000 nM.

`COc1ccc(-c2[nH]c(-c3cccs3)nc2-c2ccc(-n3cnc4ccccc43)cc2)cc1` [Example 111] was tested, and the IC50 was 9.33 nM.

`CN(C)c1ccc(-n2cc(-c3nccs3)nc2-c2ccc(-n3ccc4cccnc43)cc2)cn1` [Example 30, 5-(2-(4-(1H-pyrrolo[2,3-b]pyridin-1-yl)phenyl)-4-(thiazol-2-yl)-1H-imidazol-1-yl)-N,N′-dimethylpyridin-2-mine] gave an IC50 of 0.607 nM.

With `Cc1ccc(-n2cc(-c3ccccn3)nc2-c2ccc(-n3ccc4cc(F)cnc43)cc2)cn1` [Example 21, 5-fluoro-1-(4-(1-(6-methylpyridin-3-yl)-4-(pyridin-2x-yl)-1H-imidazol-2-yl)phenyl)-1H-pyrrolo-[2,3-b]pyridine] the IC50 was 2.82 nM.

Compound `CN1CCN(c2ccc(-c3[nH]c(-c4cncs4)nc3-c3ccc(-n4ccc5cccnc54)cc3)cn2)CC1` [Example 107] has an IC50 of 2.26 nM.

`Cc1ccc(-n2cc(-c3ccccn3)nc2-c2ccc(-n3c(=O)[nH]c4cccnc43)cc2)cn1` [Example 95] showed an IC50 of 3.91 nM.

Work on `c1cnc2c(c1)ccn2-c1ccc(-c2nc(-c3nccs3)cn2-c2nccs2)cc1` [Example 3, 1-(4-(1,4-di(thiazol-2-yl)-1H-imidazol-2-yl)phenyl)-1H-pyrrolo[2,3-b)pyridine] yielded an IC50 of 1610 nM.

`Cc1ccc(-n2cc(-c3cncs3)nc2-c2ccc(-n3c(C(F)(F)F)nc4cccnc43)cc2)cn1` [Example 117, 2-(trifluoromethyl)-3-(4-(1-(6-methylpyridin-3-yl)-4-(thiazol-5-yl)-1H-imidazol-2-yl)phenyl)-3H-imidazo[4,5-b]pyridine] showed an IC50 of 0.614 nM.

`Cc1ccc(-n2cc(-c3cccc[n+]3[O-])nc2-c2ccc(-n3ccc4cccnc43)cc2)cn1` [Example 16, 1-(4-(1-(6-methylpyridin-3-yl)-4-(1-oxido-pyridin-2-yl)-1H-imidazol-2-yl)phenyl)-1H-pyrrolo[2,3-b]pyridine] gave an IC50 of 12.3 nM.

`c1ccc(-c2cn(-c3cccnc3)c(-c3ccc(-c4nccc5cccnc45)cc3)n2)nc1` [Example 78] was tested, and the IC50 was 3.26 nM.

`c1ccc(-c2cn(-c3cccnc3)c(-c3ccc(-n4ccc5ccccc54)cc3)n2)nc1` [Example 36, 1-(4-(4-(pyridin-2-yl)-1-(pyridin-3-yl)-1H-imidazol-2-yl)phenyl)-1H-indole] gave an IC50 of 281 nM.

Compound `c1ccc(-c2nc(-c3cccnc3)n(-c3ccc(-n4ccc5cccnc54)cc3)n2)nc1` [Example 115, 1-(4-(3-(pyridin-2-yl)-5-(pyridine-3-yl)-1H-1,2,4-triazol-1-yl)phenyl)-1H-pyrrolo[2,3-b]pyridine] has an IC50 of 17.9 nM.

In the case of `c1ccc(-c2cc(-c3cccnc3)nn2-c2ccc(-n3ccc4cccnc43)cc2)nc1` [Example 122, 1-(4-(5-(pyridin-2-yl)-3-(pyridin-3-yl)-1H-pyrazol-1-yl)phenyl)-1H-pyrrolo[2,3-b]pyridine TFA salt], the IC50 is reported as 21.1 nM.

Compound `Cc1cc(-n2cc(-c3ccccn3)nc2-c2ccc(-n3ccc4cccnc43)cc2)ccn1` [Example 5, 1-(4-(1-(2-methylpyridin-4-(pyridin-2-yl)-1H-imidazol-2-yl)-1H-imidazol-2-yl)phenyl)-1H-pyrrolo[2,3-b]pyridine] has an IC50 of 4.62 nM.
